Laboratory results taken from patent EP4763847A1 (Jiangsu Yahong Meditech Co., Ltd., priority 2023, dated 2025).
Read-outs that look alike come from different tables or passages of the source.

Experiments:
PRMT5-MTA [1] = molecular target: T1, PRMT5-MTA (Homo sapiens, UniProt O14744); conditions: PRMT5+MTA enzyme activity inhibition; PRMT5/MET50 protein 1 nM, 5'-deoxy-5'-adenosine 1 µM, SAM 2.5 µM, Histone H4 substrate 5 nM
Description: (§3) The enzymatic inhibition activity of the compounds against PRMT5-MTA was detected using the AlphaScreen method. A 1× methyltransferase assay buffer IV (Signalchem) was prepared as a dilution solution for each component of the enzymatic reaction. […] The test compounds were added to all wells except the control wells in a 3-fold dilution series of 10 concentration points starting from 1000 nM using a Tecan D300e. After centrifugation at 1000 rpm for 1 minute in a centrifuge, the plate was incubated at 23°C for 15 minutes. Histone H4 substrate at a final concentration of 5 nM was added to the plate at 4 µL per well. After centrifugation at 1000 rpm for 1 minute in a centrifuge, the plate was reacted in an incubator at 23°C for 45 minutes. Anti-Histone H4 (symmetric dimethyl R3) antibody (Abcam) was pre-incubated with 50 µg/mL AlphaScreen Protein A Acceptor beads (PerkinElmer) at room temperature for 10 minutes, and then added to the plate in a volume of 10 µL per well, followed by reaction at room temperature for 1 hour. 10 µL of 50 µg/mL AlphaScreen Streptavidin Donor beads (PerkinElmer) were added to each well, and reacted at room temperature for 1 hour. The signal values in the plate were detected using the Alpha method on an Envision multi-mode plate reader. The IC50 values of the compounds for PRMT5/MET50 enzyme activity inhibition were calculated in Xlfit 5.0 software.

HCT116 MTAP KO = experiment: Cell proliferation inhibition (CellTiter Glo), HCT116 MTAP KO cells; format: cell-based; conditions: cultured 6 days with compound
Description: (§1) Test Example 2: Test of cell proliferation inhibition activity of the compounds
(§2) HCT116-WT (ATCC, CCL-247) and HCT116 MTAP KO (Cobioer Nanjing, CBP75002) cells were seeded into white low-transparency 96-well sterile cell culture plates at a density of 250 cells per well, respectively. The culture medium was McCoy's 5A Medium + 10% FBS. The plates were incubated overnight at 37°C with 5% CO2. The cells were treated with compounds gradiently with an initial concentration of 10000 nM, 4-fold dilution, and 8 concentration points. The last two columns were control wells with only DMSO added. The treated cells were continued to be cultured for 6 days. On the seventh day, 50 µL of CellTiter Glo® reagent was added to each well. After reacting on a shaker at room temperature for 10 minutes, the chemiluminescence signal in the plate was detected using the chemiluminescence detection method on a BIOTEK H1 multi-mode plate reader. […] Table 2: IC50 values of compounds for HCT116 MTAP KO/WT cell growth inhibition

HCT116-WT = experiment: Cell proliferation inhibition (CellTiter Glo), HCT116-WT cells; format: cell-based; conditions: cultured 6 days with compound
Description: as §1, §2

PRMT5-MTA [2] = molecular target: T1, PRMT5-MTA; experiment: biochemical; conditions: IC50 (nM), PRMT5+MTA enzyme activity inhibition; PRMT5/MET50 protein 1 nM, 5'-deoxy-5'-adenosine 1 µM, SAM 2.5 µM, Histone H4 substrate 5 nM
Description: as §3

T1 sequence (O14744 whole entry): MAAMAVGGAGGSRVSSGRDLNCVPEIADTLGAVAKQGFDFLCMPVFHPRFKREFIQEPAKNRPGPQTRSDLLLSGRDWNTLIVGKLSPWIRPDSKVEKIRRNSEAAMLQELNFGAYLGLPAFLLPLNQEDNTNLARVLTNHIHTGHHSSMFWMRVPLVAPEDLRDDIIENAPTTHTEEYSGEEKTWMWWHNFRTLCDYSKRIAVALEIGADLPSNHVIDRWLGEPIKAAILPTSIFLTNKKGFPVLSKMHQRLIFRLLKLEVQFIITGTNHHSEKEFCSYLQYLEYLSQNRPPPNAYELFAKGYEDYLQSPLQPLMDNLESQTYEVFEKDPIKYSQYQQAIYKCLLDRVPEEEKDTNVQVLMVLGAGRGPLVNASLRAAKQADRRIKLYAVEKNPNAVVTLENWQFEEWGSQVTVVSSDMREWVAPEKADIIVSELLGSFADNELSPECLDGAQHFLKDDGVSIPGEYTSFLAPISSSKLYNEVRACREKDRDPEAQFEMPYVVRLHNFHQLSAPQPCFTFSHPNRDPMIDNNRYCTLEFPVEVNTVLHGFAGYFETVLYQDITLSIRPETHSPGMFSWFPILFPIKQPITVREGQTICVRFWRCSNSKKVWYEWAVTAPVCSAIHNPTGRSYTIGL
T1 sequence (Q9BQA1 whole entry partner): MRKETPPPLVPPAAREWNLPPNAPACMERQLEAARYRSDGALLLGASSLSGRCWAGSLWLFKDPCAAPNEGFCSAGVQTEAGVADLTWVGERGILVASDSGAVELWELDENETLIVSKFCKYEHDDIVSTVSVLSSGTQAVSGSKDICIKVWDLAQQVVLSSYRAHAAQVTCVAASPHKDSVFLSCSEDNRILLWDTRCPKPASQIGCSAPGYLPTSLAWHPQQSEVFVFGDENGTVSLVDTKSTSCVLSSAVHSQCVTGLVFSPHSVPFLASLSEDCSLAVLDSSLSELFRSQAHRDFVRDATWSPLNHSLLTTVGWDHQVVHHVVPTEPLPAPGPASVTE

6-((isobutyrylamido(methylamino)methylene)amino)-N-(1-(pyrimidin-2-yl)ethyl)-N-((5 -(trifluoromethyl)pyridin-2-yl)methyl)nicotinamide [Compound 29]
IC50 (PRMT5-MTA [1]): 8.2 nM | IC50 (HCT116 MTAP KO): 590 nM | IC50 (HCT116-WT): 3730 nM

CNC(N)=Nc1ccc(C(=O)N(Cc2ccc(C(F)(F)F)cn2)C2CCOc3ccccc32)cn1 (stereo not drawn) [Compound 86]
IC50 (PRMT5-MTA [2]): 0.7 nM | IC50 (HCT116 MTAP KO; Homo sapiens, HCT-116, 144 h): 60 nM | IC50 (HCT116-WT; 144 h): 867 nM

CNC(N)=Nc1ccc(C(=O)N(Cc2ccc(C(F)(F)F)cn2)C(C)c2ccccc2OC(F)(F)F)cn1 (stereo not drawn) [Compound 60]
IC50 (PRMT5-MTA [2]): 2.8 nM | IC50 (HCT116 MTAP KO; Homo sapiens, HCT-116, 144 h): 933 nM | IC50 (HCT116-WT; 144 h): 2950 nM

CNC(N)=Nc1ccc(C(=O)N(Cc2ccc(C(F)(F)F)cn2)C(C)c2ccccc2Cl)cn1 (stereo not drawn) [Compound 88]
IC50 (PRMT5-MTA [2]): 3.3 nM | IC50 (HCT116 MTAP KO; Homo sapiens, HCT-116, 144 h): 616 nM | IC50 (HCT116-WT; 144 h): 3840 nM

CNC(N)=Nc1ccc(C(=O)N(Cc2ccncc2)[C@H](C)c2ccccc2F)cn1 [Compound 107]
IC50 (PRMT5-MTA [2]): 4 nM | IC50 (HCT116 MTAP KO; Homo sapiens, HCT-116, 144 h): 474 nM | IC50 (HCT116-WT; 144 h): 8230 nM

CNC(N)=Nc1ccc(C(=O)N(Cc2ccc3sc(C4CCN(C)CC4)nc3c2)[C@H](C)c2ccccc2F)cn1 [Compound 79]
IC50 (PRMT5-MTA [2]): 3.1 nM | IC50 (HCT116 MTAP KO; Homo sapiens, HCT-116, 144 h): 782 nM | IC50 (HCT116-WT; 144 h): 3440 nM

CN/C(N)=N\c1ccc(C(=O)N(Cc2ccc(C(F)(F)F)cn2)[C@H]2CCCc3ccccc32)cn1 [Compound 114, (S,Z)-6-((amino(methylamino)methylene)amino)-N-(1,2,3,4-tetrahydronaphthalen-1-yl) -N-((5-(trifluoromethyl)pyridin-2-yl)methyl)nicotinamide]
IC50 (PRMT5-MTA [2]): 3.2 nM | IC50 (HCT116 MTAP KO; Homo sapiens, HCT-116, 144 h): 612 nM | IC50 (HCT116-WT; 144 h): 2970 nM

CN/C(N)=N\c1ccc(C(=O)N(Cc2ccc(OC(F)(F)F)cn2)[C@H](C)c2ccccc2F)cn1 [Compound 77, (R,Z)-6-((amino(methylamino)methylene)amino)-N-(1-(2-fluorophenyl)ethyl)-N-((5-(trifluoromethoxy)pyridin-2-yl)methyl)nicotinamide]
IC50 (PRMT5-MTA [2]): 4 nM | IC50 (HCT116 MTAP KO; Homo sapiens, HCT-116, 144 h): 28 nM | IC50 (HCT116-WT; 144 h): 330 nM

CNC(N)=Nc1ccc(C(=O)N(Cc2ccc(-c3ccc(C)nc3)cn2)[C@H](C)c2ccccc2F)cn1 [Compound 71]
IC50 (PRMT5-MTA [2]): 7.7 nM | IC50 (HCT116 MTAP KO; Homo sapiens, HCT-116, 144 h): 62 nM | IC50 (HCT116-WT; 144 h): 1090 nM

CNC(N)=Nc1ccc(C(=O)N(Cc2ccc(C(F)(F)F)cc2)[C@H](C)c2ccccc2F)cn1 [Compound 108]
IC50 (PRMT5-MTA [2]): 7.9 nM | IC50 (HCT116 MTAP KO; Homo sapiens, HCT-116, 144 h): 48 nM | IC50 (HCT116-WT; 144 h): 452 nM

CNC(N)=Nc1ccc(C(=O)N(Cc2ccc(C(F)(F)F)cn2)[C@@H]2CCc3ccccc32)cn1 [Compound 83]
IC50 (PRMT5-MTA [2]): 4 nM | IC50 (HCT116 MTAP KO; Homo sapiens, HCT-116, 144 h): 195 nM | IC50 (HCT116-WT; 144 h): 1710 nM

CNC(N)=Nc1ccc(C(=O)N(Cc2ccc(C(F)(F)F)cn2)n2ccc3ccccc32)cn1 [Compound 62]
IC50 (PRMT5-MTA [2]): 4.1 nM | IC50 (HCT116 MTAP KO; Homo sapiens, HCT-116, 144 h): 76 nM | IC50 (HCT116-WT; 144 h): 1790 nM

CNC(N)=Nc1ccc(C(=O)N(Cc2ccc(C(F)(F)F)cn2)C(C)c2ncccc2F)cn1 (racemic) [Compound 58]
IC50 (PRMT5-MTA [2]): 0.4 nM | IC50 (HCT116 MTAP KO; Homo sapiens, HCT-116, 144 h): 34 nM | IC50 (HCT116-WT; 144 h): 971 nM

CNC(N)=Nc1ccc(C(=O)N(Cc2ccc(C(F)(F)F)cn2)[C@H](C)c2ccccc2F)cn1 [Compound 89]
IC50 (PRMT5-MTA [2]): 0.6 nM | IC50 (HCT116 MTAP KO; Homo sapiens, HCT-116, 144 h): 12 nM | IC50 (HCT116-WT; 144 h): 421 nM

CNC(N)=Nc1ccc(C(=O)N(Cc2ccc(C(F)(F)F)cn2)C(C)c2cccc(F)c2)cn1 (stereo not drawn) [compound 119]
IC50 (PRMT5-MTA [2]): 1.3 nM | IC50 (HCT116 MTAP KO; Homo sapiens, HCT-116, 144 h): 398 nM | IC50 (HCT116-WT; 144 h): 2790 nM

CNC(N)=Nc1ccc(C(=O)N(Cc2ccc(C(F)(F)F)cn2)C(C)c2ccccc2C(F)(F)F)cn1 (stereo not drawn) [Compound 115]
IC50 (PRMT5-MTA [2]): 0.9 nM | IC50 (HCT116 MTAP KO; Homo sapiens, HCT-116, 144 h): 942 nM | IC50 (HCT116-WT; 144 h): 3180 nM

CNC(N)=Nc1ccc(C(=O)N(Cc2ccc(C(F)(F)F)cn2)[C@H](C)c2cc(F)ccc2F)cn1 [Compound 85]
IC50 (PRMT5-MTA [2]): 4 nM | IC50 (HCT116 MTAP KO; Homo sapiens, HCT-116, 144 h): 11 nM | IC50 (HCT116-WT; 144 h): 290 nM
